In ChEMBL document CHEMBL1212812, “Multi-target spectral moment QSAR versus ANN for antiparasitic drugs against different parasite species” (Bioorg Med Chem, 2010):
Blank lines part the entries; values can stand above or below the molecule they belong to.

Legend:
[1] = test system: Cryptosporidium parvum; assay: Antimicrobial activity against Cryptosporidium parvum; type: functional, organism-based
[2] = test system: Trypanosoma brucei; assay: Antimicrobial activity against Trypanosoma brucei; type: functional, organism-based
[3] = test system: Trypanosoma cruzi; assay: Antimicrobial activity against Trypanosoma cruzi; type: functional, organism-based; settings: Trypanosoma cruzi
[4] = test system: Plasmodium falciparum; assay: Antimicrobial activity against Plasmodium falciparum; type: functional, organism-based
[5] = test system: Toxoplasma gondii; assay: Antimicrobial activity against Toxoplasma gondii; type: functional, organism-based; settings: Toxoplasma gondii
[6] = test system: Leishmania mexicana; assay: Antimicrobial activity against Leishmania mexicana; type: functional, organism-based
[7] = test system: Leishmania; assay: Antimicrobial activity against Leishmania; type: functional
[8] = test system: Trypanosoma brucei rhodesiense; assay: Antimicrobial activity against Trypanosoma brucei rhodesiense; type: functional, organism-based
[9] = test system: Trypanosoma brucei brucei; assay: Antimicrobial activity against Trypanosoma brucei brucei; type: functional, organism-based

SMILES: COc1ccc(OC)c(Cc2sc3nc(N)nc(N)c3c2C)c1
IC50 [1]: 1 µM

SMILES: O=[N+]([O-])c1cccc(Sc2cc3ccccc3[nH]2)c1
IC50 [5]: 2 µM

SMILES: c1ccc2cc(Sc3cc4ccccc4[nH]3)ccc2c1
IC50 [5]: 4 µM

SMILES: COc1ccc(Sc2cc3ccccc3[nH]2)cc1
IC50 [5]: 17 µM

SMILES: [O-][S+](c1ccccc1)c1cc2ccccc2[nH]1 (stereo not drawn)
IC50 [5]: 50 µM

SMILES: C(=N\Nc1ccccc1)/c1ccc(N2CCN(c3ccc(/C=N/Nc4ccccc4)cc3)CC2)cc1
IC50 [7]: 34 µM

SMILES: C1CNC(N2CCN(N3CCN(C4=NCCN4)CC3)CC2)=N1
IC50 [8]: 28 µM

SMILES: CC(C)(C)OC(=O)NCCNC(=S)N1CCN(N2CCN(C(=S)NCCNC(=O)OC(C)(C)C)CC2)CC1
IC50 [8]: 14 µM

SMILES: O=C(CCN1CCCN(C(=O)OCc2ccccc2)C1)OCc1ccccc1
IC50 [8]: 3 µM

SMILES: NCCCNCCN
IC50 [8]: 49 µM

SMILES: CCCCC12CC3CC(C1)CC(NC)(C3)C2
IC50 [2]: 2 µM

SMILES: NCCCC12CC3CC(CC(C3)C1)C2
IC50 [2]: 1 µM

SMILES: CNC12CC3CC(C1)CC(C(C)C)(C3)C2
IC50 [2]: 6 µM

SMILES: CCCC1(N)CC(C)(C)CC(C)(C)C1
IC50 [2]: 6 µM

SMILES: CCCC1(C)CC(C)(C)CC(C)(N)C1 (stereo not drawn)
IC50 [2]: 2 µM

SMILES: CCCC1(CCC)CC(C)(C)CC(C)(N)C1 (stereo not drawn)
IC50 [2]: 1 µM

SMILES: CCCC1CC(C)(C)CC(C)(N)C1 (stereo not drawn)
IC50 [2]: 3 µM

SMILES: CCNC1(C)CC(C)(C)CC(C)(C)C1
IC50 [2]: 6 µM

SMILES: CCCC(C)NC(=O)c1ccc(N(C)Cc2cnc3nc(N)nc(N)c3n2)cc1 (stereo not drawn)
IC50 [1]: 1 µM

SMILES: CN(Cc1cnc2nc(N)nc(N)c2n1)c1ccc(C(=O)NC(CO)CCO)cc1 (stereo not drawn)
IC50 [1]: 2 µM

SMILES: N=C(N)c1ccc(NC(=O)Cn2ccnc2[N+](=O)[O-])cc1
IC50 [8]: 6 µM
IC50 [9]: 200 µM

SMILES: N=C(N)c1ccc(NC(=O)Cn2cnc([N+](=O)[O-])c2)cc1
IC50 [8]: 80 µM
IC50 [9]: 200 µM

SMILES: COc1cc(Cc2csc3nc(N)nc(N)c23)c(Br)c(OC)c1OC
IC50 [1]: 3 µM

SMILES: O=C(O)COCCOCCOc1cc(Cl)c(Cl)cc1Cl
IC50 [5]: 1 µM

SMILES: c1ccc2[nH]c(Sc3cccc4ccccc34)cc2c1
IC50 [5]: 3 µM

SMILES: O=[N+]([O-])c1ccc(Sc2cc3ccccc3[nH]2)cc1
IC50 [5]: 14 µM

SMILES: Nc1nc(N)nc(N/N=C\c2ccco2)n1
IC50 [8]: 13 µM
IC50 [9]: 29 µM

SMILES: Nc1nc(N)nc(N/N=C\c2cccs2)n1
IC50 [8]: 10 µM
IC50 [9]: 89 µM

SMILES: CSc1c(Sc2ccc([N+](=O)[O-])cc2)[nH]c2ccccc12
IC50 [5]: 28 µM

SMILES: NC(=O)c1nnn(Cc2cc(Cl)c(C(=O)C34CC5CC(CC(C5)C3)C4)c(Cl)c2)c1N
IC50 [5]: 15 µM

The remaining lines, values ahead:

IC50 [2]: 1 µM
SMILES: COc1cccc2c1cc1c3ccccc3nc-1n2C

IC50 [3]: 32 µM
IC50 [2]: 32 µM
SMILES: Cn1c2nc3ccc(C#N)cc3c-2cc2cc(C(F)(F)F)ccc21

IC50 [3]: 32 µM
IC50 [2]: 32 µM
IC50 [4]: 32 µM
SMILES: Fc1ccc2[nH]c3nc4ccccc4c-3cc2c1

IC50 [2]: 1 µM
SMILES: Cn1c2nc3ccccc3c-2cc2cc(Cl)ccc21

IC50 [3]: 32 µM
IC50 [2]: 32 µM
IC50 [4]: 32 µM
SMILES: Clc1ccc2[nH]c3nc4ccccc4c-3cc2c1

IC50 [2]: 32 µM
SMILES: Clc1cc(Cl)c2[nH]c3nc4ccccc4c-3cc2c1

IC50 [6]: 3 µM
SMILES: N=C(N)c1cccc(C(=N)N)c1-c1cc2ccccc2[nH]1

IC50 [1]: 1 µM
SMILES: Nc1nc(N)c2nc(Cc3ccc(Cl)cc3)c(Cc3ccc(Cl)cc3)nc2n1

IC50 [1]: 4 µM
SMILES: Nc1nc(N)c2nc(Cc3ccc(Cl)c(Cl)c3)c(Cc3ccc(Cl)c(Cl)c3)nc2n1

IC50 [1]: 1 µM
SMILES: Nc1nc(N)c2nc(CN3c4ccccc4CC4C=CC=CC43)cnc2n1 (stereo not drawn)

IC50 [1]: 1 µM
SMILES: Nc1nc(N)c2nc(CN3c4ccccc4SC4C=CC=CC43)cnc2n1 (stereo not drawn)

IC50 [1]: 1 µM
SMILES: Nc1nc(N)c2cc(CN3c4ccccc4C=CC4C=CC=CC43)cnc2n1 (stereo not drawn)

IC50 [3]: 32 µM
IC50 [2]: 27 µM
IC50 [4]: 30 µM
SMILES: Cn1c2nc3ccccc3c-2cc2ccc(Br)cc21

IC50 [3]: 32 µM
IC50 [2]: 17 µM
IC50 [4]: 16 µM
SMILES: Cn1c2nc3ccccc3c-2cc2ccc(C(F)(F)F)cc21

IC50 [1]: 1 µM
SMILES: Nc1nc(N)c2cc(/C=C/c3ccccc3)ccc2n1
